“Also recorded” adds a separate entry of the source.
Target: tRNA guanine transglycosylase (TGT) (Escherichia coli, UniProt P0A847)
Assay: TGT labeling of DNA/RNA hairpin oligos with PreQ1 probes, urea PAGE gel shift
Assay type: biochemical, E. coli
Conditions: for turn over by TGT: extended stem DNA analog of ECYA1 with minimal recognition element mutations, denaturing urea PAGE shift and intensity; for labeling of the representative DNA hairpin substrate by functional PreQ1 probes: urea PAGE gel shift assays; for labeled product: 17 nucleotide DNA hairpins derived from cognate tRNA anticodon loops
[1] = urea PAGE gel shift and intensity

Chain of tRNA guanine transglycosylase (TGT) (P0A847 whole entry): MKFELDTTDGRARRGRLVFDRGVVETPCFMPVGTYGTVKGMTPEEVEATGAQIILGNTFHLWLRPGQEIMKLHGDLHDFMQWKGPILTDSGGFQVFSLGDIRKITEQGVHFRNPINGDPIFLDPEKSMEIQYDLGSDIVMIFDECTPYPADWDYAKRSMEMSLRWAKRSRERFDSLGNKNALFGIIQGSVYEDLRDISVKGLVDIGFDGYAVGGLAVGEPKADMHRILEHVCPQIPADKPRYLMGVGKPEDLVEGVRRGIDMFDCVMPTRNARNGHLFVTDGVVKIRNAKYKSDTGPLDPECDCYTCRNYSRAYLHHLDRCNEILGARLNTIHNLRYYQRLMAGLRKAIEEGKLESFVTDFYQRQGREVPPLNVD

Compound: GGGAGCAGACTGTAAATCTGCTCCC [dTdGdT]
- turn over by TGT (PreQ1-biotin probe): no appreciable turn over

Compound: Nc1nc2[nH]cc(CNCCCCCCNC(=O)CCCCC3SCC4NC(=O)NC43)c2c(=O)[nH]1 (stereo not shown) [PreQ1-biotin]
- labeling of the representative DNA hairpin substrate by functional PreQ1 probes: Quantitative labeling

Compound: GCAGACTGTAAATCTGC [tyrosine based counterpart]
- labeled product [1]: ~-5%

Compound: GGGAGCAGACTGUAAATCTGCTCCC [dTdGdU]
- turn over by TGT (PreQ1-biotin probe): comparable turn over to the wildtype RNA substrate

Compound: GGGAGCAGACUGUAAATCTGCTCCC [dUdGdU]
- turn over by TGT (PreQ1-biotin probe): comparable turn over to the wildtype RNA substrate

Compound: CCTGCCTGTCACGCAGG
- labeled product [1]: ~40%

Compound: CTGGATTGTCCTTCCAG [SEQ ID NO:21]
- labeling with PreQ1-biotin confirmed by LCMS (LCMS analysis of PreQ1-biotin labeled sequence): efficient labeling
- labeling of hairpin or loop sequence appended to longer ssDNA (PreQ1-biotin probe, urea PAGE gel shift, listed as TAG2 DNA hairpin): can be modified internally; also recorded: can be modified at either end of a DNA sequence of interest

Compound: CTGGATTGTGATTCCAG
- labeled product [1]: ~40%

Compound: GGGAGCAGACUGTAAATCTGCTCCC [dUdGdT]
- turn over by TGT (PreQ1-biotin probe): no appreciable turn over

Compound: CTGGACTGTCACTCCAG [His(stem)-Asp(loop)]
- labeling efficiency (composite hairpins with swapped stems and loops, urea PAGE gel shift and intensity): over 50%

Compound: Alexa Fluor 647
- labeling of the representative DNA hairpin substrate by functional PreQ1 probes: Quantitative labeling

Compound: TAMRA
- labeling of the representative DNA hairpin substrate by functional PreQ1 probes: Quantitative labeling

Source: patent US20240247250A1, “COMPOSITIONS AND METHODS FOR MODIFYING DNA” (The Regents of the University of California, priority 2021, published 2024)
